Results from patent publication EP0041644B1 (priority 1980, dated 1981).

Assays:
L-1210 Leukemia = L-1210 Leukemia (Table IX); assay type: in vivo, mice
Experimental: The sodium and ammonium salts of the present invention were tested against transplantable mouse tumors as indicated below.

Compound: O=C1[O][Pt]2([NH]CC3(CCCCC3)C[NH]2)[O]C(=O)C1[O-].[Na+] [Example 9, 2-Hydroxymalonato (1,1-diaminomethylcyclohexane)-platinum (II), sodium salt]
- Average Weight Change,g (L-1210 Leukemia; 2 mg/kg/inj ip, qd 1→9): -1.3 g
- Effect MST % T/C (L-1210 Leukemia; 2 mg/kg/inj ip, qd 1→9): 131 % T/C
- MST Days (L-1210 Leukemia; 2 mg/kg/inj ip, qd 1→9): 8.5 days
- Average Weight Change,g (L-1210 Leukemia; 4 mg/kg/inj ip, qd 1→9): -1.2 g
- Effect MST % T/C (L-1210 Leukemia; 4 mg/kg/inj ip, qd 1→9): 154 % T/C
- MST Days (L-1210 Leukemia; 4 mg/kg/inj ip, qd 1→9): 10.0 days
- Average Weight Change,g (L-1210 Leukemia; 8 mg/kg/inj ip, qd 1→9): -1.3 g
- Effect MST % T/C (L-1210 Leukemia; 8 mg/kg/inj ip, qd 1→9): 238 % T/C
- MST Days (L-1210 Leukemia; 8 mg/kg/inj ip, qd 1→9): 15.5 days
- Average Weight Change,g (L-1210 Leukemia; 12 mg/kg/inj ip, Day 1): -1.8 g
- Effect MST % T/C (L-1210 Leukemia; 12 mg/kg/inj ip, Day 1): 162 % T/C
- MST Days (L-1210 Leukemia; 12 mg/kg/inj ip, Day 1): 10.5 days
- Average Weight Change,g (L-1210 Leukemia; 12 mg/kg/inj ip, qd 1→9): -3.0 g
- Effect MST % T/C (L-1210 Leukemia; 12 mg/kg/inj ip, qd 1→9): 292 % T/C
- MST Days (L-1210 Leukemia; 12 mg/kg/inj ip, qd 1→9): 19.0 days
- Average Weight Change,g (L-1210 Leukemia; 24 mg/kg/inj ip, Day 1): -3.7 g
- Effect MST % T/C (L-1210 Leukemia; 24 mg/kg/inj ip, Day 1): 215 % T/C
- MST Days (L-1210 Leukemia; 24 mg/kg/inj ip, Day 1): 14.0 days
- Average Weight Change,g (L-1210 Leukemia; 36 mg/kg/inj ip, Day 1): -4.3 g
- Effect MST % T/C (L-1210 Leukemia; 36 mg/kg/inj ip, Day 1): 223 % T/C
- MST Days (L-1210 Leukemia; 36 mg/kg/inj ip, Day 1): 14.5 days
- Average Weight Change,g (L-1210 Leukemia; 48 mg/kg/inj ip, Day 1): -3.6 g
- Effect MST % T/C (L-1210 Leukemia; 48 mg/kg/inj ip, Day 1): 200 % T/C
- MST Days (L-1210 Leukemia; 48 mg/kg/inj ip, Day 1): 13.0 days
- maximum T/C (L-1210 Leukemia; qd 1→9 (cis-DDP 2.4, parent 8 and 12, sodium salt 12 mg/kg/injection)): 292%
- maximum T/C (L-1210 Leukemia; single ip injection at maximum tolerated dose (cis-DDP 8 mg/kg, the two others 36 mg/kg)): 223%
- Water-solubility at room temperature: ≥ 100 mg/mL
